Experimental findings from PubChem BioAssay (NCI) are described below.

Structures are written as SMILES. Where “and” joins values, the source holds several entries; their conditions need not be identical. Equal entries are not always repeated.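 Test compounds were applied to cells in 96-well plates for 48 hours at 5 doses. Abbreviation: GI50, concentration required for 50% inhibition of growth. TGI: total growth inhibition.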 *1 amine or outer side, *2 acyl side, *3 side chain or, on linkers, in order; H or OH if unused. Where a SMILES comes first, the peptide text is derived from it. [ ]: non-standard residue; d: D form. X56 = CC[C@H](C)[C@H](OC(=O)[C@@H](C)[C@@H](CC)N[*:1])C(=O)[*:2]; X32 = C[C@H](N[*:1])C(=O)C(C)(C)C(=O)[*:2]; NMeY = CN[C@@H](Cc1ccc(O)cc1)C(=O)O; NMeL = CN[C@@H](CC(C)C)C(=O)O; NMeV = CN[C@H](C(=O)O)C(C)C Some results are limits rather than exact numbers.

Common to all, as to experiment: inhibition of tumour cell growth, NCI panel, 48 h
In test [1] the test system is LXFL 529 NSCLC.
Test [2] has as its system HCT-15 colon.
For test [3], the system named is NCI-H460 lung.
For test [4], the system named is NCI-H226 lung.
For test [5], the system named is OVCAR-3 ovarian.
Test [6] concerns SW-620 colon.
The test system of test [7] is DMS 273 small cell lung.
Test [8] concerns OVCAR-5 ovarian.
For test [9], the system named is SNB-19 CNS.
Test [10] has as its system T-47D breast.

`NNC(=O)/C(NC(=O)c1ccccc1)=C(\N)c1ccc(Cl)cc1`: the TGI in test [1], in [2], in test [3], in [4], in test [5] and in test [6] was above 100 µM in each case. Further, the TGI in [7], in test [8] and in test [9] was above 100 µM each time.
Regarding `Cc1c(N=Cc2ccc(N(CCC#N)CCC#N)cc2)c(=O)n(-c2ccccc2)n1C`, the TGI in test [1], in test [2], in test [10], in [3], in test [4] and in [5] was above 100 µM each time. In addition, the TGI in test [6], in test [7], in [8] and in test [9] was above 100 µM throughout.
Regarding `CC(C)CN(CC(C)C)C(=O)C1CCCC[C@@H]1C(=O)O` (stereo not given in full), the TGI in test [1], in test [2], in test [3], in [4], in test [5] and in test [6] was above 100 µM throughout. This molecule had a TGI in test [7] above 100 µM.
Regarding `O=c1c2cccnc2ncn1CCN1CCCC1`, the TGI in [1], in test [3], in [4], in [5], in test [6] and in [7] was above 100 µM throughout. The TGI in test [8] and in test [9] was above 100 µM throughout.
Consider `Cn1cnc([N+](=O)[O-])c1Sc1nnnn1-c1ccccc1`, for which the TGI stood at 15.4 µM in test [1]; 33.5 µM in test [3]; 36.3 µM in test [4]; 26.6 µM in test [5]; 20.2 µM in [6]; 29 µM in test [7]. Also, the TGI in test [8] is 31.7 µM; in test [9] it was above 100 µM.
With `CC[C@H](C)[C@@H]1OC(=O)[C@@H](C)[C@@H](CC)NC(=O)[C@H](C)NC(=O)C(C)(C)C(=O)[C@H](C)NC(=O)[C@H](Cc2ccc(OC)cc2)N(C)C(=O)[C@H](C(C)C)N(C)C(=O)CNC(=O)[C@H](CC(C)C)N(C)C(=O)CNC1=O` (cyclo(A[X56]G[NMeL]G[NMeV][NMeY](Me)[X32])), the TGI in test [1] is 0.0823 µM; in test [2], above 34.2 µM; in [4], 3.75 µM and 1.06 µM; in [5], 0.197 µM and 0.307 µM; in test [6] it was above 39.1 µM; in test [7], 0.072 µM. For the same molecule, the TGI in test [8] is above 100 µM; in test [9], 0.492 µM and 0.688 µM. In addition, the GI50 is 0.222 µM in test [2]; 0.0731 µM in [4]; 0.0304 µM in test [5]; below 0.0316 µM in [6]; 349 nM in test [8]; 0.211 µM in [9].
For `C=CCn1cc(C(=O)NC(=O)NCCCCCOC(=O)CCCCCCCCCCC(=O)OCCCCCNC(=O)NC(=O)c2cn(CC=C)c(=O)n(C)c2=O)c(=O)n(C)c1=O`, the TGI in [1], in test [2], in test [3], in test [4], in test [5] and in test [6] was above 100 µM in each case. Moreover, the TGI in test [7], in test [8] and in test [9] was above 100 µM throughout.
For the molecule `CC1(O)CCC2(C#N)CCC1C2O` (stereo not given), the TGI in test [1], in [2], in [3], in test [4], in test [5] and in test [7] was above 100 µM in each case. Besides, the TGI in [8] and in test [9] was above 100 µM throughout.
Consider `CC1(C)CC(Nc2ccc(Nc3ccccc3)cc2)CC(C)(C)N1`, for which the TGI in test [1] was above 56.8 µM; in [2] it was 70.4 µM; in [10], 37.5 µM; in test [3], 64 µM; in test [4], 40.8 µM; in test [5], 41.8 µM. Also, the TGI is 49 µM in [6], above 100 µM in [7], above 63.1 µM in [8] and above 80.7 µM in [9].
In the case of `C1COCCOCCOCCOCCO1.CC(=O)[CH-]C(C)=O.CC(=O)[CH-]C(C)=O.CC(=O)[CH-]C(C)=O.[V]`, the GI50 in [1] was 20.7 µM; in [2] it was 20.7 µM; in test [3], 22.7 µM; in test [4], 37.1 µM; in [5] it was 13.7 µM; in [6], 22.9 µM. The results for the GI50 in [7] and in [9] were 15.7 µM and 15.3 µM, respectively. For the same molecule, the TGI is 41.2 µM in test [1]; 57.9 µM in test [2]; 99.4 µM in test [3]; above 100 µM in test [4]; 32.3 µM in test [5]; above 100 µM in test [6]. Besides, the results for the TGI in [7] and in [9] were 34.8 µM and 32.6 µM, respectively.
On to `COc1cc(/C=C(\OC(C)=O)c2ccc3c(c2)OCO3)cc(OC)c1OC`, for which the TGI in test [1] is 34.9 µM; in [2], 36.9 µM; in test [3] it was above 100 µM; in [4] it was 30.7 µM; in test [5], 49.2 µM; in test [6], above 100 µM. Also, the TGI in test [7] is 33.6 µM; in test [8] it was above 100 µM; in test [9] it was above 100 µM.
As for `COC(=O)C1C(OCc2ccccc2)C2CCC1(OC)C=C2C` (stereo not given), the TGI in test [1], in [2], in test [3], in test [4], in test [5] and in [6] was above 100 µM in each case. Further, the TGI in test [7] is above 83.9 µM; in test [8], above 100 µM; in [9] it was above 100 µM.
With `N#C/C(=C\c1ccc(C(O)P(=O)(O)O)cc1)C(N)=O` (stereo not given), the TGI in [1], in test [2], in test [3], in [4], in test [5] and in [6] was above 100 µM throughout. The TGI in test [7] and in test [9] was above 100 µM throughout.
